Reference: PMC6447882, “Pharmacokinetics and Biodistribution of Pegylated Methotrexate after IV Administration to Mice” (Iranian Journal of Pharmaceutical Research : IJPR, 2018)
Converted amounts (≈) assume the structure as drawn. “And” between values parts separate entries of the source, which are not always exact repeats. Identical values can stand only once. “Also recorded” adds a separate entry of the source. Like-named read-outs stand apart in the source and are kept apart here. Blank lines part the entries; values can stand above or below the molecule they belong to.

Tests used:
[1] = set-up: method as in PMID 18346806, PMID 12506184; settings: drug linked to PEG40000 vs free drug; cited from earlier work
[2] = in vivo; settings: mice; for half-life: iv
Method: A portion of 500 μL acetonitrile was added to a mixture of 225 μL plasma and 25 μL MTX or MTX-PEG5000 solution (100 µg/mL) and vortexed. Precipitated proteins were separated by centrifuging the mixture at 12000 rpm for 5 min. The supernatant was evaporated by a Multi-Evaporator (VLM EC 1, Italy) at 50 °C using nitrogen gas. The residue was dissolved in 150 μL mobile phase and injected to HPLC. The standards were prepared in triplicate at eight concentrations ranging from 0.25 to 100 µg/mL for MTX and from 1 to 1000 µg/mL for MTX-PEG5000.
A Knauer HPLC system consisted of a wellchrom pump k-1001, equipped with k-2701, DAD k-2700 detector was used. Chromatography was performed on a PerfectSilTarget® 100 HPLC Column (C8, 150 × 4.6 mm, 5 µm). For analysis of MTX, mobile phase consisted of phosphate-citrate buffer (pH 5): acetonitrile (88:12, v/v) and was delivered isocratically at a flow rate of 1 mL/min.
The column eluent was monitored using UV detector at the wavelength of 302 nm. For analysis of MTX-PEG5000, the mobile phase consisted of phosphate-citrate buffer (pH 5): acetonitrile (55:45, v/v) and was delivered isocratically at a flow rate of 0.5 mL/min. The column eluent was monitored using UV detector at the wavelength of 342 nm.
(§1) IV bolous injections of MTX and MTX-PEG5000 (70 mg/kg) were administered to mice through marginal veins by insulin syringe (gauge 27). At least three mice were sacrificed at each time point. The animals (n = 200) at dosing were in the range of 2-4 weeks of age and their mean weight was 20 ± 5 g. The blood samples were collected at 5, 10, 15, 30, 45, 60, 90, and 120 min intervals for MTX and for at 5, 10, 15, 30, 45, 60, 90, 120, 180, 240, 300, and 360 min intervals for MTX-PEG5000. At each time point, the blood samples were collected from at least three mice and after centrifuging (10000 rpm, for 5 min), the plasma samples were separated and immediately frozen at -20 °C. Then, the mice were cervically dislocated and their organs including heart, liver, spleen, kidney, lung, brain, and small intestine were removed and after washing with normal saline, were dried by facial tissue and exactly weighed. Whole removed organs and 0.25 to 0.5 g of liver and small intestine were minced and homogenized in a certain volume of normal saline using homogenizer IKA basic T25 (Germany). The organs were collected from MTX injected animals (10, 60 and 120 min for all organs and 5, 10, 30, 60 and 120 for liver tissue) and at 2, 6, 12, 24, and 48 h for mice administered by MTX-PEG5000.
The logarithm of plasma concentrations of MTX and MTX-PEG5000 were plotted vs. time. […] The pharmacokinetic parameters were obtained by fitting data to two-compartmental model equation (C = Ae^-αt + Be^-βt) and noncompartmental model using Excel 2010 (33).

[3] = Biodistribution (tissue distribution) after IV injection to mice; assay type: in vivo; settings: iv 70 mg/kg
Method: For preparation of MTX tissue samples, one volume of tissue homogenate in normal saline was mixed with two volume acetonitrile and centrifuged in 12000 rpm for 5 min. The supernatant was removed and evaporated to dryness under nitrogen gas. The residue was reconstituted in 250 μL mobile phase and was injected to HPLC. For preparation of MTX-PEG5000 tissue samples, one volume of tissue homogenate in normal saline was mixed with two volumes of dichloromethane and shaked for 15 min. After centrifugation (5000 rpm), the lower organic phase was aspirated and dehydrated by Na2SO4 and after dissolving in 200 μL mobile phase, was injected to HPLC. The standard solutions were prepared in triplicate at concentration levels ranging from of 1 to 50 µg/mL for MTX and 2.5 to 500 µg/mL for MTX-PEG5000.
The same HPLC instrument was utilized for analysis of MTX and MTX-PEG tissue samples. The precision and accuracy of the method were examined by adding known amounts of MTX (0. 25, 2.5 and 10 µg/mL) and MTX-PEG5000 (5, 50 and 500 µg/mL) to pool tissue (quality control) samples. The other steps were performed as plasma samples.
as §1, with “Whole removed organs and 0.25 to 0.5 g of liver and small intestine were minced and homogenized in a certain volume of normal saline using homogenizer IKA basic T25 (Germany). The organs were collected from MTX injected animals (10, 60 and 120 min for all organs and 5, 10, 30, 60 and 120 for liver tissue) and at 2, 6, 12, 24, and 48 h for mice administered by MTX-PEG5000.” left out

[4] = set-up: method as in earlier work; settings: cited from earlier work
[5] = set-up: method as in PMID 18346806; settings: cited from earlier work
[6] = system: plasma proteins; settings: cited from earlier work
[7] = relatively alkaline pH of plasma; no reference given; cited from earlier work
[8] = set-up: method as in PMID 18346806, PMID 12506184; settings: conjugation to PEG5000; cited from earlier work
[9] = iv 70 mg/kg, two-compartmental model, n = 3
[10] = iv 70 mg/kg, two-compartmental model, n = 3, 70 mg/kg

Compound: CC[C@@]1(O)C(=O)OCc2c1cc1n(c2=O)Cc2cc3ccccc3nc2-1 [Campthotecin]
- T1/2 β [1]: 1320 min

- AUMC ([2]; iv 70 mg/kg, n = 3): 24.63 ± 2.84 mg.mL-.min2
- Vc ([2]; iv 70 mg/kg, n = 3): 94.025 ± 6.814 mL
- K10 [2, 9]: 0.236 ± 0.043 min⁻¹
- K12 [2, 9]: 0.050 ± 0.020 min⁻¹
- K21 [2, 9]: 0.036 ± 0.002 min⁻¹
- T1/2a (distribution half-life, T1/2 α) [2, 10]: 2.445 ± 0.549 min
- T1/2b (elimination half-life, T1/2 β) [2, 10]: 24.328 ± 0.657 min
- half-life ([2]; mouse, plasma, 70 mg/kg, two-compartmental model, n = 3, read-out: T1/2a (distribution half-life, T1/2 α)): 2.45 min
- half-life ([2]; mouse, plasma, 70 mg/kg, two-compartmental model, n = 3, read-out: T1/2b (elimination half-life, T1/2 β)): 24.3 min
- clearance ([2]; mouse, plasma, iv 70 mg/kg, n = 3, read-out: CLs (systemic clearance)): 22.4 ± 5.46 mL/min
- MRT ([2]; mouse, plasma, iv 70 mg/kg, noncompartmental model, n = 3, read-out: MRT (mean residence time) (converted)): 9.3 min
- Time after injection up to which measurable in tissues [3]: ≤ 2 h
Compound: CN(Cc1cnc2nc(N)nc(N)c2n1)c1ccc(C(=O)N[C@@H](CCC(=O)O)C(=O)O)cc1 [MTX, Methotrexate]
- AUC ([2]; iv 70 mg/kg, n = 3, 70 mg/kg): 2.64 mg·min/mL and 2.642 mg·min/mL and 2.642 ± 0.190 mg·min/mL
- Accumulation in organs (liver, intestine) ([3]; 70 mg/kg): accumulated in liver immediately after its distribution phase (10 min) and then redistributed to small intestine (60 min); also recorded: high and fast accumulation in liver
- Presence in the brain ([3]; brain): no detectable amount of drug was found in the brain
- Plasma half-life [4]: 90 to 210 min
- Solubility in aqueous solution ([5]; pH4): 0.08 mg/mL (≈ 0.176 mM)
- Solubility in aqueous solution ([5]; pH8): 58.17 mg/mL (≈ 128 mM)
- Protein binding [6]: 30-50%
- Portion of the drug bound to plasma proteins ([6]; no reference given): 50%
- logP [7]: -1.4

Compound: Nc1ccn([C@@H]2O[C@H](CO)[C@@H](O)C2(F)F)c(=O)n1 [Gemcitabine]
- AUC [8]: 118.55 µg·min/mL
- T1/2 α [8]: 59.4 min
- T1/2 β [8]: 673.8 min
- clearance [8]: 0.654 mL/min
